According to patent US11576979B2, “Pyrrolobenzodiazepine prodrugs and antibody conjugates thereof” (GENENTECH, INC., priority 2016, dated 2023):
Values joined by “and” are separate entries in the source; they are usually repeats but may differ in a detail not shown here. Identical values can stand only once.

What was measured:
A2058 = assay: CellTiter-Glo toxicity, 4 days (Example 9); format: cell-based; settings: Homo sapiens, A2058, 96 h, 4 days of drug incubation; Table 7A
Method: (§1) The toxicity of various PBD monomer disulfide prodrugs and PBD dimer disulfide prodrugs was evaluated on UACC-257, Igrov-1 and A2058 cell lines. Cells were seeded in 384-well plate and treated with drug 24 hours later. After 4 days of drug incubation, the cell viability was determined using Promega CellTiter-Glo luminescent reagent, which measures ATP level (an indirect measure of cell number). The luminescent intensity was measured on PerkinElmer Envision reader. The relative cell viability was calculated by normalizing to non-drug treatment control and was graphed using KleidaGraph software package. IC50 value was determined as the concentration to obtain 50% of the maximum cell killing.

Igrov-1 = assay: CellTiter-Glo toxicity, 4 days (Example 9); format: cell-based; settings: Homo sapiens, IGROV-1, 96 h, 4 days of drug incubation; Table 7A
Method: as §1

UACC-257 = assay: CellTiter-Glo toxicity, 4 days (Example 9); format: cell-based; settings: Homo sapiens, UACC-257, 96 h, 4 days of drug incubation; Table 7A
Method: as §1

[1] = Disulfide cleavage by cysteine, LC/MS; format: physicochemical; settings: 15 uM compound, 0.2 mM cysteine, pH 7.0, 37 C
Method: (§2) For disulfide cleavage determination, the compounds were incubated at 15 μM with 0.2 mM cysteine or 4 mM GSH in 100 mM Tris buffer pH 7.0 containing 5% methanol at 37° C. Aliquots were taken at specified time points and the samples were analyzed by LC/MS on Sciex TripleTOF 5600 on a Hypersil Gold C18 column (100×2.1, 1.9 Thermo Scientific). The column was eluted by a gradient of buffer A (0.1% formic acid in 10 mM ammonium acetate) to buffer B (0.1% formic acid in 10 mM ammonium acetate in 90% acetonitrile), 5% B 0-0.5 min, 5-25% B 0.5-8 min, 25-75% B 8-13 min, and 75-95% B 13-13.5 min, 95% B 13.5-14.5 min, 95-5% B 14.5-15 min at 0.4 mL/min. All products were separated and characterized by LC/MS/MS in a positive ESI ion mode. All analytes had the protonated molecular MH+ as the major species with little source fragmentation. Full scan accurate mass peak areas were used to estimate relative abundance of each component.

[2] = Disulfide cleavage by glutathione (GSH), LC/MS; format: physicochemical; settings: 15 uM compound, 4 mM GSH, pH 7.0, 37 C
Method: as §2

| SMILES | IC50 (A2058) | IC50 (Igrov-1) | IC50 (UACC-257) | % Remaining at 24 h by Cys [1] | % Remaining at 24 h by GSH [2] | % Remaining at 4 h by Cys ([1]; 4 h) |
| --- | --- | --- | --- | --- | --- | --- |
| C=C1C[C@H]2C(O)N(C(=O)OCC3(SSCCO)CCOC3)c3cc(OC)c(OC)cc3C(=O)N2C1 (some centres unmarked) [PBD monomer disulfide prodrug 22] | 0.0237 µM | 0.0398 µM | 0.0806 µM | 1.4% | 0% | – |
| C=C1C[C@H]2C(O)N(C(=O)OCCSSCCC(=O)O)c3cc(OC)c(OC)cc3C(=O)N2C1 (some centres unmarked) [PBD monomer disulfide prodrug 27] | 0.261 µM | 0.958 µM | 0.939 µM | – | 0% | – |
| C=C1C[C@H]2C(O)N(C(=O)OCCSSC3CCCC3)c3cc(OC)c(OC)cc3C(=O)N2C1 (some centres unmarked) [PBD monomer disulfide prodrug 28] | 0.92 µM | 2.3 µM | 2.1 µM | 62.2% | 0% | – |
| C=C1C[C@H]2C(O)N(C(=O)OC[C@@H](C)SSC(C)(C)C)c3cc(OC)c(OC)cc3C(=O)N2C1 (some centres unmarked) [PBD monomer disulfide prodrug 13] | > 10 µM | > 10 µM | > 10 µM | 99.9% | 98.8% | – |
| C=C1C[C@H]2C(O)N(C(=O)OCc3ccc(SSC(C)C)cc3)c3cc(OC)c(OC)cc3C(=O)N2C1 (some centres unmarked) [PBD monomer disulfide prodrug 19] | 0.0377 µM | 0.0774 µM | 0.147 µM | 4.4% | 0% | – |
| C=C1C[C@H]2C(O)N(C(=O)OCC3(SSCC)CCCCC3)c3cc(OC)c(OC)cc3C(=O)N2C1 (some centres unmarked) [PBD monomer disulfide prodrug 18] | – | – | – | 75.3% | 18.7% | – |
| C=C1C[C@H]2C(O)N(C(=O)OCCSSCCO)c3cc(OC)c(OC)cc3C(=O)N2C1 (some centres unmarked) [PBD monomer disulfide prodrug 29] | 0.0291 µM | 0.0578 µM | 0.142 µM | 0% | 0% | – |
| C=C1C[C@H]2C(O)N(C(=O)OCC(C)(C)SSCC)c3cc(OC)c(OC)cc3C(=O)N2C1 (some centres unmarked) [PBD monomer disulfide prodrug 14] | – | – | – | 68.1% | 3% | – |
| C=C1C[C@H]2C(O)N(C(=O)OCC3(SSCCO)CCCC3)c3cc(OC)c(OC)cc3C(=O)N2C1 (some centres unmarked) [PBD monomer disulfide prodrug 8] | 0.0472 µM | 0.172 µM | 0.194 µM | 86.7% | 0.5% | – |
| C=C1C[C@H]2C(O)N(C(=O)OC[C@@H](C)SSC3CCOCC3)c3cc(OC)c(OC)cc3C(=O)N2C1 (some centres unmarked) [PBD monomer disulfide prodrug 24] | 0.596 µM | 1.48 µM | 2.69 µM | 0.1% | 0% | – |
| C=C1C[C@H]2C(O)N(C(=O)OCC(C)(C)SSC(C)C)c3cc(OC)c(OC)cc3C(=O)N2C1 (some centres unmarked) [PBD monomer disulfide prodrug 10] | 1.83 µM | 4.81 µM | 4.73 µM | 99.4% | 88.5% | – |
| C=C1C[C@H]2C(O)N(C(=O)OCC(CN(C)C)SSC(C)C)c3cc(OC)c(OC)cc3C(=O)N2C1 (some centres unmarked) [PBD monomer disulfide prodrug 20] | – | – | – | 0% | 0% | 34% |
| C=C1C[C@H]2C(O)N(C(=O)OCC(COC)SSC(C)C)c3cc(OC)c(OC)cc3C(=O)N2C1 (some centres unmarked) [PBD monomer disulfide prodrug 21] | – | – | – | 74.7% | 0% | – |
| C=C1C[C@H]2C(O)N(C(=O)OCC3(SSCC)CC3)c3cc(OC)c(OC)cc3C(=O)N2C1 (some centres unmarked) [PBD monomer disulfide prodrug 17] | – | – | – | 34.9% | 0% | – |
| C=C1C[C@H]2C(O)N(C(=O)OC[C@@H](C)SSC(C)C)c3cc(OC)c(OC)cc3C(=O)N2C1 (some centres unmarked) [PBD monomer disulfide prodrug 15] | 0.304 µM | 0.928 µM | 1.5 µM | 99.2% and 90.8% | – | – |
